Experimental data: patent US11407750B2, “Derivatives of an FGFR inhibitor” (Incyte Corporation, priority 2019, dated 2022)
Read-outs that look alike come from different tables or passages of the source.

Tests used:
[1] = target: FGFR1 (Homo sapiens (Human), UniProt P11362); assay: FGFR Enzymatic Assay (FRET peptide phosphorylation), FGFR1; format: biochemical
Description: (§1) The inhibitor potency of the exemplified compounds was determined in an enzyme discontinuous assay that measures peptide phosphorylation using FRET measurements to detect product formation. Inhibitors were serially diluted in DMSO and a volume of 0.2 μL was transferred to the wells of a 384-well plate. For the isoforms of FGFR (−1, −2, −3 wild-type and mutant isoforms, −4) including phosphorylated and un-phosphorylated proteins, a 5 μL/well volume of enzyme diluted in assay buffer (50 mM HEPES, 10 mM MgCl2, 1 mM EGTA, 0.01% Tween-20, 5 mM DTT, pH 7.5) was added to the plate and pre-incubated with inhibitor for 5 to 15 minutes at ambient temperature. Appropriate controls (enzyme blank and enzyme with no inhibitor) were included on the plate. The reaction was initiated by the addition of a 5 μL/well volume containing both biotinylated […] […] The ATP Km values were pre-determined for each FGFR isoform in a separate series of experiments. […] The plate was allowed to equilibrate for ˜10 minutes at ambient temperature before scanning on a PheraStar plate reader (BMG Labtech) instrument.
(§2) Either GraphPad prism or XLfit was used to analyze the data. The IC50 values were derived by fitting the data to a four parameter logistic equation producing a sigmoidal dose-response curve with a variable Hill coefficient. Prism equation: Y=Bottom+(Top−Bottom)/(1+10^((Log IC50−X)*Hill slope)); […]

[2] = target: FGFR2 (Homo sapiens (Human), UniProt P21802); assay: FGFR Enzymatic Assay (FRET peptide phosphorylation), FGFR2; format: biochemical
FGFR2, sequence (P21802 22-821): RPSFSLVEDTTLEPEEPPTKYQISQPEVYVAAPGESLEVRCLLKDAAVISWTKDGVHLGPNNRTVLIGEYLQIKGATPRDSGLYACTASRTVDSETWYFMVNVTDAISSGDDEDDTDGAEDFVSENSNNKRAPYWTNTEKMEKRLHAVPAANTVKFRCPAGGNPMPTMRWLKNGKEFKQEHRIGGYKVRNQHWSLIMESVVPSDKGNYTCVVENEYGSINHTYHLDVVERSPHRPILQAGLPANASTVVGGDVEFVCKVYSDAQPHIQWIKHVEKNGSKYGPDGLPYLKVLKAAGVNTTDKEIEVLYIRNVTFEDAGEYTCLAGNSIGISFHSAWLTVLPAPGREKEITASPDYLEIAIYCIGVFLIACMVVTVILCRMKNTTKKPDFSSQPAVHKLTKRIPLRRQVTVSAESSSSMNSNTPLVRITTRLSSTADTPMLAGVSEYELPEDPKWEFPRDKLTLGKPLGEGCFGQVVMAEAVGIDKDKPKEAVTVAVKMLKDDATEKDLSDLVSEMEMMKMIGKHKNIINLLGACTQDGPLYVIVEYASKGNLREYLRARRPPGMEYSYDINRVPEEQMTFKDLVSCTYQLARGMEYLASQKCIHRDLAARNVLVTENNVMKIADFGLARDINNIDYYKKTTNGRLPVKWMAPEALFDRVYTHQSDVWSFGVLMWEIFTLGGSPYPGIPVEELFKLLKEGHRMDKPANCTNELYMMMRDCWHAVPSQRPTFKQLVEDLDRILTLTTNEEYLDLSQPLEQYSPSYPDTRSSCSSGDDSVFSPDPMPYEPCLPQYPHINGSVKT
Description: as §1, §2

[3] = target: FGFR3 (Homo sapiens (Human), UniProt P22607); assay: FGFR Enzymatic Assay (FRET peptide phosphorylation), FGFR3; format: biochemical
FGFR3, sequence (P22607 23-806): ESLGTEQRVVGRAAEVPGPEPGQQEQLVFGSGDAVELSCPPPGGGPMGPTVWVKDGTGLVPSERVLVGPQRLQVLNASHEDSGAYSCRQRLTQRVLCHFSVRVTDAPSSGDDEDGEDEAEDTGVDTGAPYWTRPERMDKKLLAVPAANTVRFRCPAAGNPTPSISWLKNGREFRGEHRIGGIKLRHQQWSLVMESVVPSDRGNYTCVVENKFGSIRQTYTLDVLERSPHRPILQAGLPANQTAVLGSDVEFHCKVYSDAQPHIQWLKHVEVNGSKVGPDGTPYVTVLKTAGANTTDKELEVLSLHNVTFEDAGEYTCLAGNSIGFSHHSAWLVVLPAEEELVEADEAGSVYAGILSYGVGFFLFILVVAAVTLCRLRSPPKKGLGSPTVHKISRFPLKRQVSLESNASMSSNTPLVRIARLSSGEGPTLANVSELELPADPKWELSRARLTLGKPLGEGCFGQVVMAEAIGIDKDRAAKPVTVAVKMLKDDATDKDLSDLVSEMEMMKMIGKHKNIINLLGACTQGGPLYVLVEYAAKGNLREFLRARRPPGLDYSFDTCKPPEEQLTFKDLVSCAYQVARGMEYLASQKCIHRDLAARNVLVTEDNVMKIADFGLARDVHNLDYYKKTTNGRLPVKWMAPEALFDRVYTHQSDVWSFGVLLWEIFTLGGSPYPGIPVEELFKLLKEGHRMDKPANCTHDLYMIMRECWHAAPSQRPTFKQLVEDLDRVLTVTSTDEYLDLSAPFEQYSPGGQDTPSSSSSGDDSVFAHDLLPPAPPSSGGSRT
Description: as §1, §2

[4] = target: tyrosine-phosphorylated Fibroblast Growth Factor Receptor 2 alpha (FGFR2α) in KATO III cells (Homo sapiens, UniProt P21802); assay: KATOIII Whole Blood pFGFR2α ELISA Assay; format: cell-based
tyrosine-phosphorylated Fibroblast Growth Factor Receptor 2 alpha (FGFR2α) in KATO III cells, sequence (P21802 22-821 limits assumed): as the sequence (P21802 22-821) above
Description: To measure tyrosine-phosphorylated Fibroblast Growth Factor Receptor 2 alpha (FGFR2a) in KATO III spiked whole blood assay, KATO III cells were purchased from ATCC and maintained in Iscove's medium with 20% FBS (Gibco/Life Technologies). […] 50 uL of the cells were then spiked into a 96-deep well 2 ml polypropylene assay block (Costar) in the presence or absence of a concentration range of test compounds and 300 ul human heparinized whole blood (Biological Specialty Corp, Colmar Pa.). After 4 hours incubation in 37° C., the red cells were lysed using Qiagen EL buffer and the cell lysates were resuspended in lysis buffer (Cell Signaling) containing standard protease inhibitor cocktail (Calbiochem/EMD) and PMSF (Sigma) for 30 minutes ice. […] IC50 determination was performed by fitting the curve of inhibitor percent inhibition versus the log of the inhibitor concentration using the GraphPad Prism 5.0 software.

[5] = Compound 1 human absorption, metabolism, and excretion study (single oral dose of [14C] Compound 1); format: in vivo; conditions: for % Total Radioactivity Pool of Hamilton Pools (0-24 h): blood/plasma samples; for % of Administered Dose in Feces Samples, Sum: sum 0-144 h
Description: An open label-study was conducted, assessing the mass balance, pharmacokinetics, and metabolite profiles of a single oral dose of [14C] Compound 1:
Blood/plasma, urine, and feces were collected from participants for 4 to 10 days after administration.
Human discharge criteria includes that a minimum of 90% of the administered radioactive dose is recovered; and that less than or equal to 1% of the administered radioactive dose is recovered in excreta (urine and feces combined) in 2 consecutive 24-hour urine and fecal collection samples.

[6] = Permeability in Caco-2 cells (absorptive direction A-B); format: in vitro ADME; conditions: human, Caco-2, 4% BSA in receiver, read-out: CACO2 Pm
Description: (§3) Caco-2 cells were grown in 96-well transwell plates with a seeding density of 14000 cell/well in DMEM medium. To determine the permeability in the absorptive direction (A-B), the test compound in HBSS was added to the donor compartment (apical side), and 4% BSA in HBSS was added into the receiver compartment (basolateral side). To determine whether a compound is a P-gp substrate, permeability values were measured in both the A-B and B-A directions (bidirectional transport assay) in the absence of 4% BSA. Digoxin and cyclosporine A were included as positive controls for P-gp substrate and inhibitor, respectively, to ensure the functionality of P-gp in the bidirectional transport assay. The test compound at various concentrations was added in the donor compartment (apical side for A-B transport and basolateral side for B-A transport) while HBSS solution was added in the receiver compartment (basolateral side for A-B transport and apical side for B-A transport). For permeability studies in the A-B direction, the donor volume was 0.075 mL, and the receiver volume was 0.25 mL. For permeability studies in the B-A direction, the donor volume was 0.25 mL, and the receiver volume was 0.075 mL. The incubation was carried out at 37° C. for 120 minutes. Transepithelial electrical resistance (TEER) was measured before and after the 120 minutes incubation to ensure the integrity of the cell monolayers. At the end of the incubation period, samples were removed from both the donor and receiver sides and mixed with acetonitrile for protein precipitation. The supernatants were collected after centrifugation for analysis using LC-MS/MS method.
(§4) Permeability coefficient (Papp) values from Caco-2 studies were determined using the following equation: Papp(cm/s)=(F*VD)/(SA*MD) where the flux rate (F, mass/time) was calculated from the slope of cumulative amounts of compound of interest on the receiver side, SA is the surface area of the cell membrane, VD is the donor volume, and MD is the initial amount of the solution in the donor chamber.

[7] = test system: Caco-2 cells; assay: as above; format: in vitro ADME; conditions: 4% BSA in receiver
Description: as §3, §4

[8] = target: P-gp (Homo sapiens (Human), UniProt P08183); assay: Bidirectional transport across Caco-2 monolayers (P-gp mediated transport); format: in vitro ADME; conditions: for Papp A→B at 120 min, 3 μM / Papp B→A at 120 min, 3 μM / efflux ratio at 120 min, 3 μM / Papp A→B at 120 min, 30 μM / Papp B→A at 120 min, 30 μM / efflux ratio at 120 min, 30 μM / Papp A→B at 120 min, 1 μM / Papp B→A at 120 min, 1 μM: human; for efflux ratio at 120 min, 3 μM / efflux ratio at 120 min, 30 μM: read-out: Efflux Ratio (B-A/A-B)
P-gp, sequence (P08183 whole entry): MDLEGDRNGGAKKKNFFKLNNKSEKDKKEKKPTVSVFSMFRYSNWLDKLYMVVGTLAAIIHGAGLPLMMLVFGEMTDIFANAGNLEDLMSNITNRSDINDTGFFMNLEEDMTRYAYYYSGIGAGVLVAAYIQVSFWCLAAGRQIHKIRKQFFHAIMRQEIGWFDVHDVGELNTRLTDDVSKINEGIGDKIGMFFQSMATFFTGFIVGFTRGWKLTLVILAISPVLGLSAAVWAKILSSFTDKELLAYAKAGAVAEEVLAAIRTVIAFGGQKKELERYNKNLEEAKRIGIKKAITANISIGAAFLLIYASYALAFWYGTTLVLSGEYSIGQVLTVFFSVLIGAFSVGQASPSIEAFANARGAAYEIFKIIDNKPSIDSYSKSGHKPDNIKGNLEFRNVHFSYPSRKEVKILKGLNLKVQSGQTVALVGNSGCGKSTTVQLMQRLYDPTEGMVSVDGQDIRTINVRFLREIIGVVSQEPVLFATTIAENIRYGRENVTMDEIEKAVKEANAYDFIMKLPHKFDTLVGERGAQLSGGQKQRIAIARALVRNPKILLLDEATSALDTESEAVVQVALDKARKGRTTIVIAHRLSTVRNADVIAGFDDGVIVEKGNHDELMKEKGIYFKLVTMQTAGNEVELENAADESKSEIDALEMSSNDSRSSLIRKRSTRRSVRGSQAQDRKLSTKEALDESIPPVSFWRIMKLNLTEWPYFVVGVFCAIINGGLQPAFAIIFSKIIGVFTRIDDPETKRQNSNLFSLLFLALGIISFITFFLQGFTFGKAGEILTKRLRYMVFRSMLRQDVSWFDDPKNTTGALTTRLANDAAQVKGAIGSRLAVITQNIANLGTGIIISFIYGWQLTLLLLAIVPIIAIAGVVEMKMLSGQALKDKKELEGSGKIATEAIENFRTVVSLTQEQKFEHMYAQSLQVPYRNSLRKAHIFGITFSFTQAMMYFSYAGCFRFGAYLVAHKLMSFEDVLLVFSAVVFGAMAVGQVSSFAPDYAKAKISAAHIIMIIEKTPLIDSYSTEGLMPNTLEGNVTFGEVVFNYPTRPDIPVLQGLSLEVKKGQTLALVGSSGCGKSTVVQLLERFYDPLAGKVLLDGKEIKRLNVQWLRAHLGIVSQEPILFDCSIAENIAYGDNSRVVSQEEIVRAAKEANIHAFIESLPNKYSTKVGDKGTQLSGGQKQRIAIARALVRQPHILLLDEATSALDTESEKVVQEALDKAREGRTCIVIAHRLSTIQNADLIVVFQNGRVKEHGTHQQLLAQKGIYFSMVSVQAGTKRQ
Description: as §3, §4
The efflux ratio from Caco-2 studies was calculated as the ratio of the Papp measured in the B-A direction divided by the Papp in the A-B direction.

[9] = Caco-2, with cyclosporine A (CSA) 10 μM, with CSA 10 μM
[10] = Caco-2, with cyclosporine A (CSA) 5 μM, with CSA 5 μM
[11] = radioactive dose, single oral dose, healthy male subjects

FGFR1, sequence (P11362 22-822): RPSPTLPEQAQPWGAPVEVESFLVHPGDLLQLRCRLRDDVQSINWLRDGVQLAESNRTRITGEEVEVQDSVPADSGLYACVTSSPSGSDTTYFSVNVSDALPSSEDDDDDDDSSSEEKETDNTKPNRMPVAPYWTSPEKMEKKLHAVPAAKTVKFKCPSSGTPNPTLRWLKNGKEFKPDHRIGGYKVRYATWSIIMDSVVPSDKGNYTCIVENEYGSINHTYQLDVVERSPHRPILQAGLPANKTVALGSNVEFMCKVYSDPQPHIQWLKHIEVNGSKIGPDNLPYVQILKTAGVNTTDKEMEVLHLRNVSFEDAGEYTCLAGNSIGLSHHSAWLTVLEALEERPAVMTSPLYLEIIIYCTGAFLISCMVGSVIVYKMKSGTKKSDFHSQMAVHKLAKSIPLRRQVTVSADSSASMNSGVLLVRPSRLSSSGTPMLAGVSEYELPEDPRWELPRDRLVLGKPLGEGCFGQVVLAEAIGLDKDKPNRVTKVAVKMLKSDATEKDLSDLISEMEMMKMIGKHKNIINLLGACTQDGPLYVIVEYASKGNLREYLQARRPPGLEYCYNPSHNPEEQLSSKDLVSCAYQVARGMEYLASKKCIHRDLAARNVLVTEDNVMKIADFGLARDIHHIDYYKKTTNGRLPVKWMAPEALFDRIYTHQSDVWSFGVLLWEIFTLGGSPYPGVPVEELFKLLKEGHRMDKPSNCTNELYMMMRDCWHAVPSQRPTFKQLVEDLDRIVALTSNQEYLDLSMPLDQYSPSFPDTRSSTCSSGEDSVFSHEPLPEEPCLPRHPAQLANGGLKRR

SMILES	IC50 [1]	IC50 [2]	IC50 [3]	% Total Radioactivity Pool of Hamilton Pools (0-24 h) ([5]; 0-24 h)	Papp A→B at 120 min [6]	CACO2 Pm [7]	Papp A→B at 120 min, 30 μM ([8]; Caco-2, no inhibitor)	Papp B→A at 120 min, 30 μM ([8]; Caco-2, no inhibitor)	% of Administered Dose in Feces Samples ([5]; 0-24 h)	% of Administered Dose in Feces Samples ([5]; 24-48 h)	% of Administered Dose in Feces Samples ([5]; 48-72 h)	% of Administered Dose in Feces Samples ([5]; 72-96 h)	% of Administered Dose in Feces Samples ([5]; 96-120 h)	% of Administered Dose in Feces Samples ([5]; 120-144 h)	% of Administered Dose in Feces Samples, Sum [5]	further results
CCN1C(=O)N(c2c(F)c(OC)cc(OC)c2F)C(O)c2cnc3[nH]c(CN4CCOCC4)cc3c21 (centres unmarked) [Compound 3, 3-(2,6-difluoro-3,5-dimethoxyphenyl)-1-ethyl-4-hydroxy-8-(morpholinomethyl)-1,3,4,7-tetrahydro-2H-pyrrolo[3′,2′:5,6]pyrido[4,3-d]pyrimidin-2-one]	0.01 to 0.1 µM	0.01 to 0.1 µM	0.1 to 0.5 µM	6.0%	–	–	–	–	–	–	–	–	–	–	–	IC50 ([4]; read-out: FGFR2_WB_ELISA-KATOIII IC50; KATO III cells spiked into human whole blood, 4 hours): 1 to 3 µM
CCN1C(=O)N(c2c(F)c(O)cc(OC)c2F)Cc2cnc3[nH]c(CN4CCOCC4)cc3c21 [Compound 2, 3-(2,6-difluoro-3-hydroxy-5-methoxyphenyl)-1-ethyl-8-(morpholinomethyl)-1,3,4,7-tetrahydro-2H-pyrrolo[3′,2′:5,6]pyrido[4,3-d]pyrimidin-2-one]	< 0.01 µM	< 0.01 µM	< 0.01 µM	–	5 nm/s	0.5 ×10E−6 cm/s	4.1 ± 0.7 nm/s	77 ± 28 nm/s	<0.1%	11.4%	14.5%	14.5%	1.6%	2.9%	44.4%	IC50 ([4]; KATO III cells spiked into human whole blood, 4 hours; read-out: FGFR2_WB_ELISA-KATOIII IC50): 0.05 to 0.25 µM; substrate for Pgp transport ([8]; comparison of efflux ratios at 30 μM): more effective substrate for Pgp transport than Compound 1; Papp A→B at 120 min, 3 μM [8, 9]: 6.5 ± 1.1 nm/s; Papp B→A at 120 min, 3 μM [8, 9]: 22 ± 4.9 nm/s; efflux ratio at 120 min, 3 μM [8, 9]: 3.3 ± 1.2; Papp A→B at 120 min, 30 μM [8, 9]: 20 ± 3.3 nm/s; Papp B→A at 120 min, 30 μM [8, 9]: 31 ± 12 nm/s; efflux ratio at 120 min, 30 μM [8, 9]: 1.5 ± 0.59; Papp A→B at 120 min, 3 μM ([8]; Caco-2, no inhibitor): 4.3 ± 1.5 nm/s; Papp B→A at 120 min, 3 μM ([8]; Caco-2, no inhibitor): 110 ± 80 nm/s; efflux ratio at 120 min, 3 μM ([8]; Caco-2, no inhibitor): 25 ± 11; efflux ratio at 120 min, 30 μM ([8]; Caco-2, no inhibitor): 19
CCN1C(=O)N(c2c(F)c(O)cc(OC)c2F)Cc2cnc3[nH]c(C(=O)O)cc3c21 [Compound 5, 3-(2,6-difluoro-3-hydroxy-5-methoxyphenyl)-1-ethyl-2-oxo-2,3,4,7-tetrahydro-1H-pyrrolo[3′,2′: 5,6]pyrido[4,3-d]pyrimidine-8-carboxylic acid]	–	–	–	–	–	–	–	–	–	0.4%	0.6%	0.5%	0.0%	0.1%	1.6%	–
[2H]C([2H])([2H])Oc1cc(OC([2H])([2H])[2H])c(F)c(N2Cc3cnc4[nH]c(CN5CCOCC5)cc4c3N(CC)C2=O)c1F [Compound 6, 3-(2,6-difluoro-3,5-bis(methoxy-d3)phenyl)-1-ethyl-8-(morpholinomethyl)-1,3,4,7-tetrahydro-2H-pyrrolo[3′,2′:5,6]pyrido[4,3-d]pyrimidin-2-one]	–	–	–	–	160 nm/s	–	–	–	–	–	–	–	–	–	–	–
CCN1C(=O)N(c2c(F)c(O)cc(O)c2F)Cc2cnc3[nH]c(CN4CCOCC4)cc3c21 [Compound 4, 3-(2,6-difluoro-3,5-dihydroxyphenyl)-1-ethyl-8-(morpholinomethyl)-1,3,4,7-tetrahydro-2H-pyrrolo[3′,2′:5,6]pyrido[4,3-d]pyrimidin-2-one]	–	–	–	–	–	–	–	–	–	0.5%	2.3%	1.1%	0.2%	0.4%	4.5%	–
CCN1C(=O)N(c2c(F)c(OC)cc(OC)c2F)Cc2cnc3[nH]c(CN4CCOCC4)cc3c21 [Compound 1, 3-(2,6-difluoro-3,5-dimethoxyphenyl)-1-ethyl-8-(morpholin-4-ylmethyl)-1,3,4,7-tetrahydro-2H-pyrrolo[3′,2′:5,6]pyrido[4,3-d]pyrimidin-2-one]	–	–	–	64.5%	110 nm/s	11 ×10E−6 cm/s	210 ± 11 nm/s	130 ± 16 nm/s	0.1%	0.6%	0.4%	0.2%	0.0%	0.0%	1.4%	Papp A→B at 120 min, 1 μM [8, 10]: 120 ± 23 nm/s; Papp B→A at 120 min, 1 μM [8, 10]: 90 ± 18 nm/s; Papp A→B at 120 min, 30 μM [8, 10]: 180 ± 7.5 nm/s; Papp B→A at 120 min, 30 μM [8, 10]: 120 ± 13 nm/s; Papp A→B at 120 min, 1 μM ([8]; Caco-2, no inhibitor): 73 ± 16 nm/s; Papp B→A at 120 min, 1 μM ([8]; Caco-2, no inhibitor): 110 ± 9.5 nm/s; overall recovery of radioactivity in urine and feces ([5]; over the 240 hour study): 95.1%; time of peak total radioactivity and plasma Compound 1 concentrations ([5]; post dose, single oral dose, fasted): about 2.0 hours; dose recovered in feces [5, 11]: 82.4%; dose recovered in urine [5, 11]: 12.6%; % of Administered Dose in Urine Sample ([5]; urine, 0-6 h): 0.5%; % of Administered Dose in Urine Sample ([5]; urine, 6-12 h): 0.2%; % of Administered Dose in Urine Sample ([5]; urine, 12-24 h): 0.2%; % of Administered Dose in Urine Sample ([5]; urine, 24-48 h): 0.2%; % of Administered Dose in Urine Sample, Sum ([5]; urine, sum 0-48 h): 1.0%
